Measured values: patent publication US20130171098A1, “Cyclopropyl Fused Indolobenzazepine HCV NS5B Inhibitors” (priority 2006, published 2013)
Where two headings read alike, the source gives them in different places.

Columns and labels:
[1] = target: T1, HCV NS5B RdRp genotype 1b (Hepatitis C virus genotype 1b, UniProt Q9WMX2); assay: HCV NS5B RdRp enzyme assay (standard / modified); type: biochemical
T1 construct: The protein was expressed with an 18 amino acid C-terminal truncation to enhance the solubility; made in house; host or cells: E. coli BL21(DE3), pET21a vector
Experimental: HCV NS5B RdRp Cloning, Expression, and Purification.
The cDNA encoding the NS5B protein of HCV, genotype 1b, was cloned into the pET21a expression vector. The protein was expressed with an 18 amino acid C-terminal truncation to enhance the solubility. The E. coli competent cell line BL21(DE3) was used for expression of the protein. Cultures were grown at 37° C. for ˜4 hours until the cultures reached an optical density of 2.0 at 600 nm. The cultures were cooled to 20° C. and induced with 1 mM IPTG. Fresh ampicillin was added to a final concentration of 50 μg/ml and the cells were grown overnight at 20° C.
The lysis buffer consisted of 20 mM Tris-HCl, pH 7.4, 500 mM NaCl, 0.5% triton X-100, 1 mM DTT, 1 mM EDTA, 20% glycerol, 0.5 mg/ml lysozyme, 10 mM MgCl2, 15 ug/ml deoxyribonuclease I, and Complete TM protease inhibitor tablets (Roche). After addition of the lysis buffer, frozen cell pellets were resuspended using a tissue homogenizer. To reduce the viscosity of the sample, aliquots of the lysate were sonicated on ice using a microtip attached to a Branson sonicator. The sonicated lysate was centrifuged at 100,000×g for 1 hr at 4° C. and filtered through a 0.2 μm filter unit (Corning).
The protein was purified using two sequential chromatography steps: Heparin sepharose CL-6B and polyU sepharose 4B (Pharmacia). The chromatography buffers were identical to the lysis buffer but contained no lysozyme, deoxyribonuclease I, MgCl2 or protease inhibitor and the NaCl concentration of the buffer was adjusted according to the requirements for charging the protein onto the column. Each column was eluted with a NaCl gradient which varied in length from 5-50 column volumes depending on the column type. […] The enzyme was aliquoted and stored at −80° C.
Standard HCV NS5B RdRp Enzyme Assay.
HCV RdRp genotype 1b assays were run in a final volume of 60 μl in 96 well plates (Corning 3600). The assay buffer is composed of 20 mM Hepes, pH 7.5, 2.5 mM KCl, 2.5 mM MgCl2, 1 mM DTT, 1.6 U RNAse inhibitor (Promega N2515), 0.01 mg/ml BSA (Sigma B6917), and 2% glycerol. All compounds were serially diluted (3-fold) in DMSO and diluted further in water such that the final concentration of DMSO in the assay was 2%. HCV RdRp genotype 1b enzyme was used at a final concentration of 28 nM. A polyA template was used at 6 nM, and a biotinylated oligo-dT12 primer was used at 180 nM final concentration. Template was obtained commercially (Amersham 27-4110). Biotinylated primer was prepared by Sigma Genosys. 3H-UTP was used at 0.6 μCi (0.29 μM total UTP). Reactions were initiated by the addition of enzyme, incubated at 30° C. for 60 min, and stopped by adding 25 μl of 50 mM EDTA containing SPA beads (4 μg/μl, Amersham RPNQ 0007). Plates were read on a Packard Top Count NXT after >1 hr incubation at room temperature.
Modified HCV NS5B RdRp Enzyme Assay.
A modified enzyme assay was performed essentially as described for the standard enzyme assay except for the following: The biotinylated oligo dT12 primer was precaptured on streptavidin-coated SPA beads by mixing primer and beads in assay buffer and incubating at room temperature for one hour. Unbound primer was removed after centrifugation. The primer-bound beads were resuspended in 20 mM Hepes buffer, pH 7.5 and used in the assay at final concentrations of 20 nM primer and 0.67 μg/μl beads. Order of addition in the assay: enzyme (1.75 nM) was added to diluted compound followed by the addition of a mixture of template (0.36 nM), 3H-UTP (0.6 μCi, 0.29 μM), and primer-bound beads, to initiate the reaction; concentrations given are final. Reactions were allowed to proceed for 4 hours at 30° C.
IC50 values for compounds were determined using seven different [I].

HCV replicon cells = assay: HCV replicon FRET / luciferase assay; type: cell-based, Hepatitis C virus
Experimental: The HCV FRET screening assay was performed in 96-well cell culture plates. The FRET peptide (Anaspec, Inc.) (Taliani et al., Anal. Biochem. 1996, 240, 60-67) contains a fluorescence donor, EDANS, near one end of the peptide and an acceptor, DABCYL, near the other end. The fluorescence of the peptide is quenched by […] resonance energy transfer (RET) between the donor and the acceptor, but as the NS3 protease cleaves the peptide the products are released from RET quenching and the fluorescence of the donor becomes apparent. The assay reagent was made as follows: 5× cell Luciferase cell culture lysis reagent from Promega (#E153A) diluted to 1× with dH2O, NaCl added to 150 mM final, the FRET peptide diluted to 20 μM final from a 2 mM stock.
To prepare plates, HCV replicon cells, with or without a Renilla luciferase reporter gene, were trypsinized and plated in a 96-well plate with titrated test compounds added in columns 3 through 12; columns 1 and 2 contained a control compound (HCV control inhibitor), and the bottom row contained cells with DMSO only. The plates were then placed in a CO2 incubator at 37° C.
Subsequent to addition of the test compounds described above (FRET Assay Preparation), at various times the plate was removed and Alamar blue solution (Trek Diagnostics, #00-100) was added to measure cellular toxicity. After reading in a Cytoflour 4000 instrument (PE Biosystems), plates were rinsed with PBS and then used for FRET assay by the addition of 30 ul of the FRET peptide assay reagent described above (FRET Assay Preparation) per well. The plate was then placed into the Cytoflour 4000 instrument which had been set to 340 excite/490 emission, automatic mode for up to 20 cycles and the plate read in a kinetic mode. Typically, the signal to noise using an endpoint analysis after the reads was at least three-fold. Alternatively, after Alamar blue reading, plates were rinsed with PBS, then used for luciferase assay using the Promega Dual-Glo Luciferase Assay System or the Promega EnduRen Live Cell Substrate assay.
Compound analysis was performed by quantification of the relative HCV replicon inhibition and the relative cytotoxicity values. To calculate cytoxicity values, the average Alamar Blue fluorescence signals from the control wells were set as 100% non-toxic. The individual signals in each of the compound test wells were then divided by the average control signal and multiplied by 100% to determine […]. To calculate the HCV replicon inhibition values, an average background value was obtained from the two wells containing the highest amount of HCV control inhibitor at the end of the assay period. These numbers were similar to those obtained from naïve Huh-7 cells. The background numbers were then subtracted from the average signal obtained from the control wells and this number was used as 100% activity. The individual signals in each of the compound test wells were then divided by the averaged control values after background subtraction and multiplied by 100% to determine percent activity. […] The two numbers generated for the compound plate, percent cytoxicity and percent activity, were used to determine compounds of interest for further analysis.

[2] = HCV NS5B RdRp genotype 1b enzyme
[3] = HCV replicon cells, FRET or luciferase activity

T1 sequence (Q9WMX2 2420-2992): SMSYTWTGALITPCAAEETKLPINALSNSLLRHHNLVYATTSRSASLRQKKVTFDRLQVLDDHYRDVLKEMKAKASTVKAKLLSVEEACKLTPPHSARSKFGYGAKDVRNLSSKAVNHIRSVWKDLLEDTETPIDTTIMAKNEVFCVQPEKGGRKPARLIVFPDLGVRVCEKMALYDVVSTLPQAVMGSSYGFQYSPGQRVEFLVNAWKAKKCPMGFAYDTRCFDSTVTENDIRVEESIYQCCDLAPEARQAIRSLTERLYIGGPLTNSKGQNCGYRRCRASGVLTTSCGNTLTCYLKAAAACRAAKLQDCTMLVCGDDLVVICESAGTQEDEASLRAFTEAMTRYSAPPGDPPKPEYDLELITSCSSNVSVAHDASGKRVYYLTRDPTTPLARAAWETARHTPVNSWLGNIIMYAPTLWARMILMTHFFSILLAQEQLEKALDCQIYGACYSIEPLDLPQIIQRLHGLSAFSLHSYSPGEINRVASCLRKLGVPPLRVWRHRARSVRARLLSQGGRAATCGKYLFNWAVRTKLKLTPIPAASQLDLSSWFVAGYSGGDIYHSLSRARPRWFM

Row | SMILES | IC50 [1] [nM] | EC50 (HCV replicon cells; Hepatitis C virus) [nM] | IC50 [1, 2] [nM] | EC50 (HCV replicon cells; [3]) [nM]
1 | COc1ccc2c(c1)C1CC1(C(=O)N1C3CCC1CN(C)C3)Cn1c-2c(C2CCCCC2)c2ccc(C(=O)NS(=O)(=O)N(C)C(C)C)cc21 (stereo not drawn) [drawing 98] | 1 to 500 | 1 to 500 | – | –
2 | COc1ccc2c(c1)[C@@H]1C[C@]1(C(=O)N1[C@@H]3CC[C@H]1CN(S(C)(=O)=O)C3)Cn1c-2c(C2CCCCC2)c2ccc(C(=O)NS(=O)(=O)N(C)C)cc21 | 1 to 500 | 1 to 500 | – | –
3 | COc1ccc2c(c1)C1CC1(C(=O)N1CC3CCC(C1)N3C(C)C)Cn1c-2c(C2CCCCC2)c2ccc(C(=O)NS(=O)(=O)N(C)C)cc21 (stereo not drawn) | < 20 | 1 to 500 | – | –
4 | CN1CC2CCC(C1)N2C(=O)C1=Cc2c(OC(F)(F)F)cccc2-c2c(C3CCCCC3)c3ccc(C(=O)NS(=O)(=O)N(C)C)cc3n2C1 | > 500 | > 500 | – | –
5 | COc1ccc2c(c1)C1CC1(C(=O)N1C3CCC1CN(C)C3)Cn1c-2c(C2CCCCC2)c2ccc(C(=O)NS(=O)(=O)N(C)C3CC3)cc21 (stereo not drawn) [drawing 112] | – | – | 1 to 500 | 1 to 500
6 | COc1ccc2c(c1)C1CC1C(C(=O)N1C3CCC1CN(C)C3)n1c-2c(C2CCCCC2)c2ccc(C(=O)NS(=O)(=O)C3CC3)cc21 (stereo not drawn) [drawing 100] | 1 to 500 | 1 to 500 | – | –
7 | COc1ccc2c(c1)C1CC1(C(=O)N1[C@@H]3CC[C@H]1CN(C(=O)N(C)C)C3)Cn1c-2c(C2CCCCC2)c2ccc(C(=O)NS(=O)(=O)N(C)C)cc21 (stereo partly drawn) | 1 to 500 | 1 to 500 | – | –
8 | CCN1CC2CCC(C1)N2C(=O)C12CC1c1cc(OC)ccc1-c1c(C3CCCCC3)c3ccc(C(=O)NS(=O)(=O)N(C)C)cc3n1C2 (stereo not drawn) [drawing 61] | – | – | 1 to 500 | 1 to 500
9 | COc1ccc2c(c1)C1CC1(C(=O)N1C3CCC1CN(C)C3)Cn1c-2c(C2CCCCC2)c2ccc(C(=O)NS(=O)(=O)N(C)C3CC3)cc21 (stereo not drawn) [drawing 99] | 1 to 500 | 1 to 500 | – | –
10 | COc1ccc2c(c1)C1CC1(C(=O)N1C3CCC1CN(Cc1ccccc1)C3)Cn1c-2c(C2CCCCC2)c2ccc(C(=O)NS(=O)(=O)N(C)C)cc21 (stereo not drawn) [drawing 33] | 1 to 500 | 1 to 500 | – | –
11 | COc1ccc2c(c1)C1CC1(C(=O)N1C3CCC1CN(C)C3)Cn1c-2c(C2CCCCC2)c2ccc(C(=O)NS(=O)(=O)C(C)C)cc21 (stereo not drawn) | – | 1 to 500 | – | –
12 | CCN(C)S(=O)(=O)NC(=O)c1ccc2c(C3CCCCC3)c3n(c2c1)CC1(C(=O)N2C4CCC2CN(C)C4)CC1c1cc(OC)ccc1-3 (stereo not drawn) [drawing 109] | – | – | 1 to 500 | 1 to 500
13 | COc1ccc2c(c1)C1CC1(C(=O)N1C3CCC1CN(C)C3)Cn1c-2c(C2CCCCC2)c2ccc(C(=O)NS(=O)(=O)N(C)C(C)C)cc21 (stereo not drawn) [drawing 111] | – | – | 1 to 500 | 1 to 500
14 | CNS(=O)(=O)NC(=O)c1ccc2c(C3CCCCC3)c3n(c2c1)CC1(C(=O)N2C4CCC2CN(C)C4)CC1c1cc(OC)ccc1-3 (stereo not drawn) [drawing 29] | 1 to 500 | 1 to 500 | – | –
